Tests used:
Assay type in all cases: cell-based
[1] = system: murine splenocytes; experiment: inhibition of murine splenocyte proliferation stimulated by anti-mu and IL-4; details: FIG. 5; anti-mu (10 μg/ml) and IL-4 (12.5 ng/ml)
Method: Drug was added to the cells at the doses indicated two hours prior to activation with anti-mu and IL-4. This in vitro assay is a model for immune suppression and treatment or prevention of autoimmune diseases. […] Background counts were less than 200 cpm.
There are a series of in vitro assays that can be used to measure immunosuppressive activity of a particular compound. These assays are a predictive model for treatment or prevention of autoimmune diseases, such as diabetes, lupus, arthritis, and the like. A first assay measures immunosuppressive activity of a drug at the B cell level. Spleens from adult mice contain immature B cells that express surface IgM. Cross-linking the surface IgM with an anti-mu antibody results in B cell proliferation. Additionally, this activation results in an increased expression of interleukin-4 receptors(IL-4R) on the surface of such cells. IL-4 acts as a growth factor for B cells and will increase the amount of proliferation induced by anti-mu. In the first assay, a mixture of anti-mu and murine IL-4 is added to murine splenocytes to cause their proliferation. Mice spleens are obtained from adult mice and a single cell suspension is prepared in RPMI 1640 medium supplemented with 10% FCS. […] Proliferation is determined on the third day with a pulse of tritiated thymidine. […]

[2] = system: Saccharomyces cervisiae; experiment: yeast growth inhibition; details: FIG. 6
Method: This assay measures anti-yeast and anti-fungal activity of the drugs tested.
Some of the inventive compounds are effective for inhibiting yeast cell growth. This effect can be assayed by measuring growth of the yeast strain Saccharomyces cervisiae. A control yeast stain Saccharomyces cervisiae (BIO 101, Inc.) is grown overnight in YEPD broth at 30° C. An one to hundred dilution of the yeast culture is made with fresh YEPD broth. 100 μl Aliquots of the diluted culture are distributed into 96-wells titer plates. 100 μl Aliquots of drug is diluted in YEPD broth were then added to the wells. The titer plates are incubated at room temperature with continuous shaking. The cell density of the individual cultures are determined using a mircoplate reader with a A630 filter. The A630 of the individual yeast cultures are compared to control samples without adding drug. This assay is predictive of direct antimicrobial, particularly yeast and fungal, activity of the drugs studied.
This example illustrates the effects of CT2501R (a reference compound), CT1529, CT1589 and CT1519 (see Table 1 for chemical names) on yeast growth (Saccharomyces cervisiae) in the presence or absence of drug. This assays measures anti-yeast and anti-fungal activity of the drugs tested.

[3] = system: CMV promoter activity in transformed (adenovirus) cells; experiment: CMV promoter assay (gene transcription and translation, cytotoxic activity); details: read-out: IC50 (μM), CMV promoter assay
Source text: This example illustrates data regarding proliferative activity of various inventive compounds for inducting CMV promoter activity. The CMV promoter assay measures gene transcription and translation activity wherein any active compounds will nave cytotoxic activity to inhibit cellular protein synthesis machinery in transformed (adenovirus) cells.

[4] = system: mast cells; experiment: mast cell degranulation, serotonin release assay
Source text: A serotonin release assay is utilized to study the utility of the inventive compounds for treatment of asthma and allergy. This assay measures mast cell degranulation, which is an early phase reaction to allergen challenge. Mast cells grown in tissue culture are first loaded with ^3 H serotonin, which is incorporated into the granules in the cells. The mast cells are sensitized with antigen specific monoclonal IgE, and then triggered to degranulate with the specific antigen (dinitrophenol bound to BSA (DNP)). When the cells degranulate, ^3 H Serotonin is released into the medium, and can be measured directly. The ability of the inventive compounds to inhibit the degranulation response is determined by the decrease in ^3 H Serotonin released in the presence of drug and is represented as % INHIBITION. The IC50 of any given compound is determined by the ability of that compound to inhibit degranulation by 50%.
Specifically, the serotonin release assay seeds 2×10^5 cells in 0.5 ml medium in duplicate for spontaneous release, IgE+DNP, IgE+DNP+EtOH (vehicle control), and inventive compounds. One μCi [^3H ]-Serotonin/ml (i.e., 0.5 μCi/well) (NEN Research Products, cat. #NET-398 Hydroxytryptamine Binoxalate, 5-[1,2-^3 H(N)]-(Serotonin Binoxalate, [1,2-^3 H(N)]-)) and 1 μl/ml IgE is added. The cells are incubated for 18 hours at 37° C. in 5% CO2, washed twice with 0.5 ml Isotonic Buffer (25 mM disodium PIPES pH 7.1,100 mM NaCl, 5 mM KCl, 5 mM glucose, 0.4 mM MgCl2, 1 mM CaCl2, 0.1% BSA), and sterile filtered. 250 μl Isotonic Buffer is added per well and the plates are equilibrated in an incubator for about 10 min. Drug is added and cells are activated with 40 ng/ml DNP-BSA (1 mg/ml Diluted 1:200 in Isotonic Buffer) for 45 minutes using 2 μl/250 μl. Spontaneous release is determined in incubated cells with 250 μl Isotonic Buffer for 45 minutes and the reaction is stopped by removing supernatant and centrifuging at ~4000 rpm in microfuge for 15 seconds to remove any detached cells. Released radiolableled serotonin is counted. To determine amount of ^3 H-serotonin incorporated into the cells, (a) remove Isotonic Buffer and lyse cells by adding 250 μl 1% Triton-X100 in PBS, (b) add to 5 ml scintillation fluid, (c) wash 2× with Triton/PBS, and (d) add washes to scintillation tube. Percent serotonin release is calculated by dividing the amount of released serotonin by the sum of incorporated plus released serotonin and correcting for spontaneous released serotonin. Compound inhibition is calculated by dividing the percent serotonin release in the presence of a compound by the percent serotonin release in the absence of the compound.
This assay is described above and provides an in vitro model for an allergy and asthma therapeutic compound.

Cn1cnc2c1c(=O)n(CCCCC(=O)CCl)c(=O)n2C [CT1595, 1-(6-chloro-5-oxohexyl)-3,7-dimethylxanthine]
inhibition of splenocyte proliferation [1]: most potent inhibitors of splenocyte proliferation in a dose-response manner | yeast growth inhibition [2]: strongly inhibited yeast growth | IC50 [3]: 20 µM | inhibition at 50 µM ([4]; 50 μM): 44% | inhibition at 100 µM ([4]; 100 μM): 88%

Source: patent publication US5670506A, “Halogen, isothiocyanate or azide substituted xanthines” (Cell Therapeutics, Inc., priority 1993, dated 1997)
